{"source": "paper PMC9596378", "about": "“Discovery and molecular basis of subtype-selective cyclophilin inhibitors” (Nature Chemical Biology, 2022)", "test_in_all_cases": "Chymotrypsin coupled prolyl-isomerase assay", "assay_type_in_all_cases": "biochemical", "key": {"[1]": {"target": "T1, CypE (Homo sapiens, UniProt Q9UNP9)", "T1 construct": "PPIE (UniProtKB Entry Q9UNP9: residues 131–301); host or cells: E. coli BL21(DE3)", "T1 sequence (Q9UNP9 131-301)": "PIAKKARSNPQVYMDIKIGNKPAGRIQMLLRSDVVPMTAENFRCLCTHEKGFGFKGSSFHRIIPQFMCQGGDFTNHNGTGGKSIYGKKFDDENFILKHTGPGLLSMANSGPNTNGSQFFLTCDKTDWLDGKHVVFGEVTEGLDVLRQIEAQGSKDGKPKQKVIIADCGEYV", "outline": "(§1)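 Steps: cyclophilin plus compound 5 min at 2–3 °C; α-chymotrypsin added, 5 min more; Suc-AAPF-AMC substrate in LiCl/trifluoroethanol injected and fluorescence followed 330 s. Finals: 5 nM enzyme, 25 µM chymotrypsin, 5 µM substrate, 0.25% DMSO.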"}, "[2]": {"target": "T2, CypH (Homo sapiens, UniProt O43447)", "T2 construct": "PPIH (UniProtKB Entry O43447: residues 1–177); His6 with TEV site (2BT vector leader) (N); made in house; host or cells: E. coli BL21(DE3)", "T2 sequence (O43447 whole entry, the tested form may be a part)": "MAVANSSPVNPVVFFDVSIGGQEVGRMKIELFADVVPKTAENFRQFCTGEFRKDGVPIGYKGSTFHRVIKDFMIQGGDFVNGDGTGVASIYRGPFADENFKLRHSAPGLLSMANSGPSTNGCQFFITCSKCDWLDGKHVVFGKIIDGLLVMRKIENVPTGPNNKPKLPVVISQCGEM", "outline": "as §1"}, "[3]": {"target": "T3, CypA (Homo sapiens, UniProt P62937)", "T3 construct": "PPIA (UniProtKB Entry P62937: residues 1–165); made in house; host or cells: E. coli BL21(DE3)", "T3 sequence (P62937 whole entry, the tested form may be a part)": "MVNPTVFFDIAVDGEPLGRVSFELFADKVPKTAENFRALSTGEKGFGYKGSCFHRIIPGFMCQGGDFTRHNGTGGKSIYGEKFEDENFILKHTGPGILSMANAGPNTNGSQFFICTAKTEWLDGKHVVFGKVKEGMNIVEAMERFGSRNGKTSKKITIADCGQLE", "outline": "as §1"}, "[4]": {"target": "T4, CypC (Homo sapiens, UniProt P45877)", "T4 construct": "PPIC (UniProtKB Entry P45877: residues 24–212); host or cells: E. coli BL21(DE3)", "T4 sequence (P45877 24-212)": "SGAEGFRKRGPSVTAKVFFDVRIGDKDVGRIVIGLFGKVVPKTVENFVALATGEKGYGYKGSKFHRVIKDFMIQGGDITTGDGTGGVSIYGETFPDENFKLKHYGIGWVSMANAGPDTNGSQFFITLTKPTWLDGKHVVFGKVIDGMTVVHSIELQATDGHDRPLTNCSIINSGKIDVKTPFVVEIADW", "outline": "as §1"}}, "note": "“And” between values parts separate entries of the source, which are not always exact repeats. Equal values may be shown once. Read-outs that look alike come from different tables or passages of the source.", "data": [{"smiles": "NC(=O)C1CCNC(=O)C=CC(=O)N2CCCC(Cc3ccccc3)(C2)C(=O)NC(Cc2ccc(-c3ccc(C=O)c(B(O)O)c3)cc2)C(=O)NCc2ccccc2CC(=O)N1", "note": "(stereo not drawn) [Compound C3A]", "values": [{"measurement": "higher CypE inhibition potency of C3A over C5A", "setting": "[1]", "value": 75, "unit": "fold"}, {"measurement": "selectivity for CypE over CypA", "setting": "[1]", "value": "> 100", "unit": "fold"}, {"measurement": "IC50", "setting": "[1]; Independent replicate 1, read-out: IC50 CypE", "value": "0.013 ± 0.003", "unit": "µM"}, {"measurement": "IC50", "setting": "[1]; Independent replicate 2, read-out: IC50 CypE", "value": "0.018 ± 0.006", "unit": "µM"}, {"measurement": "IC50", "setting": "[1]; Independent replicate 3, read-out: IC50 CypE", "value": "0.009 ± 0.002", "unit": "µM"}, {"measurement": "IC50", "setting": "[1]; Independent replicate 4, read-out: IC50 CypE", "value": "0.012 ± 0.004", "unit": "µM"}, {"measurement": "selectivity for CypE over the other cyclophilins screened", "setting": "[1]; prolyl-isomerase IC50", "value": "30- to 4,000 fold"}, {"measurement": "IC50", "setting": "[1]; prolyl-isomerase inhibition, 5 nM cyclophilin, read-out: IC50 CypE", "value": "0.013 ± 0.004", "unit": "µM"}, {"measurement": "IC50", "setting": "[1]; prolyl-isomerase inhibition, read-out: IC50 CypE", "value": 0.013, "unit": "µM"}, {"measurement": "IC50", "setting": "[1]; wild-type CypE, read-out: Wild-Type Cyclophilin Prolyl Isomerase Inhibition IC50 Values, CypE", "value": 0.013, "unit": "µM"}, {"measurement": "CypH prolyl-isomerase raw dose-response reading (Fig. 6c)", "setting": "[2]; Dose 0.00457247 µM", "value": "0.05086 and 0.04496"}, {"measurement": "CypH prolyl-isomerase raw dose-response reading (Fig. 6c)", "setting": "[2]; Dose 0.0137174 µM", "value": "0.05594 and 0.04525 and 0.04484"}, {"measurement": "CypH prolyl-isomerase raw dose-response reading (Fig. 6c)", "setting": "[2]; Dose 0.0411523 µM", "value": "0.05731 and 0.04453 and 0.05359"}, {"measurement": "CypH prolyl-isomerase raw dose-response reading (Fig. 6c)", "setting": "[2]; Dose 0.123457 µM", "value": "0.05145 and 0.04681 and 0.07329"}, {"measurement": "CypH prolyl-isomerase raw dose-response reading (Fig. 6c)", "setting": "[2]; Dose 0.37037 µM", "value": "0.05882 and 0.04794 and 0.07376"}, {"measurement": "CypH prolyl-isomerase raw dose-response reading (Fig. 6c)", "setting": "[2]; Dose 1.11111 µM", "value": "0.06718 and 0.05255 and 0.05895"}, {"measurement": "CypH prolyl-isomerase raw dose-response reading (Fig. 6c)", "setting": "[2]; Dose 3.33333 µM", "value": "0.06287 and 0.05436 and 0.04825"}, {"measurement": "CypH prolyl-isomerase raw dose-response reading (Fig. 6c)", "setting": "[2]; Dose 10 µM", "value": "0.04443 and 0.06084 and 0.04295"}, {"measurement": "IC50", "setting": "[2]; Independent replicate 1, read-out: IC50 CypH", "value": "> 10", "unit": "µM"}, {"measurement": "IC50", "setting": "[2]; Independent replicate 2, read-out: IC50 CypH", "value": "> 50", "unit": "µM"}, {"measurement": "IC50", "setting": "[2]; Independent replicate 3, read-out: IC50 CypH", "value": "~40", "unit": "µM"}, {"measurement": "IC50", "setting": "[2]; Independent replicate 4, read-out: IC50 CypH", "value": "> 50", "unit": "µM"}, {"measurement": "IC50", "setting": "[2]; prolyl-isomerase inhibition, 5 nM cyclophilin, read-out: IC50 CypH", "value": "> 50", "unit": "µM"}, {"measurement": "IC50", "setting": "[2]; wild-type CypH, read-out: Wild-Type Cyclophilin Prolyl Isomerase Inhibition IC50 Values, CypH", "value": "> 50", "unit": "µM"}, {"measurement": "CypA prolyl-isomerase raw dose-response reading (Fig. 6c)", "setting": "[3]; Dose 0.00114312 µM", "value": "0.07306 and 0.07874 and 0.07172"}, {"measurement": "CypA prolyl-isomerase raw dose-response reading (Fig. 6c)", "setting": "[3]; Dose 0.00342936 µM", "value": "0.06275 and 0.05859"}, {"measurement": "CypA prolyl-isomerase raw dose-response reading (Fig. 6c)", "setting": "[3]; Dose 0.0102881 µM", "value": "0.07757 and 0.05083 and 0.08593"}, {"measurement": "CypA prolyl-isomerase raw dose-response reading (Fig. 6c)", "setting": "[3]; Dose 0.0308642 µM", "value": "0.09366 and 0.07648 and 0.07092"}, {"measurement": "CypA prolyl-isomerase raw dose-response reading (Fig. 6c)", "setting": "[3]; Dose 0.0925926 µM", "value": "0.1069 and 0.06289 and 0.07689"}, {"measurement": "CypA prolyl-isomerase raw dose-response reading (Fig. 6c)", "setting": "[3]; Dose 0.205761 µM", "value": "0.06396 and 0.05394 and 0.06349 and 0.0486 and 0.04768 and 0.0647 and 0.04401 and 0.05288"}, {"measurement": "CypA prolyl-isomerase raw dose-response reading (Fig. 6c)", "setting": "[3]; Dose 0.277778 µM", "value": "0.09488 and 0.06 and 0.09425"}, {"measurement": "CypA prolyl-isomerase raw dose-response reading (Fig. 6c)", "setting": "[3]; Dose 0.833333 µM", "value": "0.06403 and 0.06231 and 0.07443"}, {"measurement": "CypA prolyl-isomerase raw dose-response reading (Fig. 6c)", "setting": "[3]; Dose 2.5 µM", "value": "0.06101 and 0.05306 and 0.05126"}, {"measurement": "IC50", "setting": "[3]; Independent replicate 1, read-out: IC50 CypA", "value": "~3", "unit": "µM"}, {"measurement": "IC50", "setting": "[3]; Independent replicate 2, read-out: IC50 CypA", "value": "2.2 ± 0.7", "unit": "µM"}, {"measurement": "IC50", "setting": "[3]; Independent replicate 3, read-out: IC50 CypA", "value": "1.6 ± 0.7", "unit": "µM"}, {"measurement": "IC50", "setting": "[3]; Independent replicate 4, read-out: IC50 CypA", "value": "4 ± 2", "unit": "µM"}, {"measurement": "IC50", "setting": "[3]; wild-type CypA, read-out: Wild-Type Cyclophilin Prolyl Isomerase Inhibition IC50 Values, CypA", "value": 3, "unit": "µM"}, {"measurement": "CypC prolyl-isomerase raw dose-response reading (Fig. 6c)", "setting": "[4]; Dose 0.00457247 µM", "value": "0.03895 and 0.0375"}, {"measurement": "CypC prolyl-isomerase raw dose-response reading (Fig. 6c)", "setting": "[4]; Dose 0.0137174 µM", "value": "0.04174 and 0.04247 and 0.04306"}, {"measurement": "CypC prolyl-isomerase raw dose-response reading (Fig. 6c)", "setting": "[4]; Dose 0.0411523 µM", "value": "0.05121 and 0.04011 and 0.04386"}, {"measurement": "CypC prolyl-isomerase raw dose-response reading (Fig. 6c)", "setting": "[4]; Dose 0.123457 µM", "value": "0.05033 and 0.03342 and 0.04085"}, {"measurement": "CypC prolyl-isomerase raw dose-response reading (Fig. 6c)", "setting": "[4]; Dose 0.37037 µM", "value": "0.03932 and 0.03966 and 0.05738"}, {"measurement": "CypC prolyl-isomerase raw dose-response reading (Fig. 6c)", "setting": "[4]; Dose 1.11111 µM", "value": "0.0536 and 0.03667 and 0.04316"}, {"measurement": "CypC prolyl-isomerase raw dose-response reading (Fig. 6c)", "setting": "[4]; Dose 3.33333 µM", "value": "0.03577 and 0.0377 and 0.04529"}, {"measurement": "CypC prolyl-isomerase raw dose-response reading (Fig. 6c)", "setting": "[4]; Dose 10 µM", "value": "0.03905 and 0.04054 and 0.0318"}, {"measurement": "IC50", "setting": "[4]; Independent replicate 1, read-out: IC50 CypC", "value": "> 10", "unit": "µM"}, {"measurement": "IC50", "setting": "[4]; Independent replicate 2, read-out: IC50 CypC", "value": "15 ± 4", "unit": "µM"}, {"measurement": "IC50", "setting": "[4]; Independent replicate 3, read-out: IC50 CypC", "value": "20 ± 10", "unit": "µM"}, {"measurement": "IC50", "setting": "[4]; Independent replicate 4, read-out: IC50 CypC", "value": "19 ± 9", "unit": "µM"}, {"measurement": "IC50", "setting": "[4]; wild-type CypC, read-out: Wild-Type Cyclophilin Prolyl Isomerase Inhibition IC50 Values, CypC", "value": 17, "unit": "µM"}]}]}
